Patent publication US7037644B1, “Means and methods for monitoring non-nucleoside reverse transcriptase inhibitor antiretroviral therapy and guiding therapeutic decisions in the treatment of HIV/AIDS” (ViroLogic, Inc., priority 1998, dated 2006)

tested on: RTV-268, patient 97-268 (RT M41L, D67N, M184V, L210W, T215Y, K219Q, P236L); test: Phenotypic susceptibility assay (patient RTV); type: cell-based, HIV-1; details: patient virus RTV-268 vs reference virus
Text: The resistance test vectors containing a functional luciferase gene cassette were constructed and host cells were transfected with the resistance test vector DNA. The resistant test vectors contained patient-derived reverse transcriptase and protease sequences that were either susceptible or resistant to the antiretroviral agents, such as nucleoside reverse transcriptase inhibitors, non-nucleoside reverse transcriptase inhibitors and protease inhibitors. The resistance test vector viral particles produced by transfecting the resistance test vector DNA into host cells, either in the presence or absence of protease inhibitors, were used to infect target host cells grown either in the absence of NRTI or NNRTI or in the presence of increasing concentrations of the drug. The amount of luciferase activity produced in infected target host cells in the presence of drug was compared to the amount of luciferase produced in infected target host cells in the absence of drug. Drug resistance was measured as the amount of drug required to inhibit by 50% the luciferase activity detected in the absence of drug (inhibitory concentration 50%, IC50). The IC50 values were determined by plotting percent drug inhibition vs. log10 drug concentration.
Host cells were seeded in 10-cm-diameter dishes and were transfected several days after plating with resistance test vector plasmid DNA and the envelope expression vector. Transfections were performed using a calcium-phosphate precipitation procedure. The cell culture media containing the DNA precipitate was replaced with fresh medium, from one to 24 hours, after transfection. Cell culture media containing resistance test vector viral particles was harvested one to four days after transfection and was passed through a […] filter before being stored at […]. HIV capsid protein (p24) levels in the harvested cell culture media were determined by an EIA method as described by the manufacturer (SIAC; Frederick, Md.). Before infection, target cells (293 and 293/T) were plated in cell culture media. Control infections were performed using cell culture media from mock transfections (no DNA) or transfections containing the resistance test vector plasmid DNA without the envelope expression plasmid. One to three or more days after infection the media was removed and cell lysis buffer (Promega) was added to each well. Cell lysates were assayed for luciferase activity (FIG. 3). The inhibitory effect of the drug was determined using the following equation: % luciferase inhibition=1−(RLUluc [drug]÷RLUluc)×100 where RLUluc [drug] is the relative light unit of luciferase activity in infected cells in the presence of drug and RLUluc is the Relative Light Unit of luciferase activity in infected cells in the absence of drug. IC50 values were obtained from the sigmoidal curves that were generated from the data by plotting the percent inhibition of luciferase activity vs. the log10 drug concentration. The drug inhibition curves are shown in (FIG. 3).
A resistance test vector was constructed as described in Example 1 from a patient sample designated 97-268. This patient had been treated with AZT and 3TC (NRTIs), indinavir and saquinavir (PRIs) and delavirdine (an NNRTI) for periods varying from 1 month to 2 years. Isolation of viral RNA and RT/PCR was used to generate a patient derived segment that comprised viral sequences coding for all of PR and amino acids 1-313 of RT. The patient derived segment was inserted into a indicator gene viral vector to generate a resistance test vector designated RTV-268. RTV-268 was then tested using the phenotypic susceptibility assay to determine accurately and quantitatively the level of susceptibility to a panel of anti-retroviral drugs. This panel of anti-retroviral drugs comprised members of the classes known as NRTIs (AZT, 3TC, d4T, ddI and ddC), NNRTIs (delavirdine and nevirapine), and PRIs (indinavir, nelfinavir, ritonavir, and saquinavir). An IC50 was determined for each drug tested. […]

SMILES | change in susceptibility
O=c1[nH]cnc2c1ncn2[C@H]1CC[C@@H](CO)O1 [ddI] | slight shifts in susceptibility
Cc1cn([C@H]2C=C[C@@H](CO)O2)c(=O)[nH]c1=O [d4T] | slight shifts in susceptibility
Cc1cn([C@H]2C[C@H](N=[N+]=[N-])[C@@H](CO)O2)c(=O)[nH]c1=O [AZT] | significant resistance
Nc1ccn([C@@H]2CS[C@H](CO)O2)c(=O)n1 [3TC] | significant resistance
Nc1ccn([C@H]2CC[C@@H](CO)O2)c(=O)n1 [ddC] | slight shifts in susceptibility

tested on: codon 181 mutant HIV-1; test: not given; details: cited from earlier work

SMILES | change in IC between wild-type and codon 181 mutant HIV-1 [fold]
CCc1cc(CCc2nc3c(Cl)ccc(Cl)c3o2)c(=S)[nH]c1C [L-702,019] | 3
